Data on 2 molecules can be found in patent US10238670B2, “9-aminomethyl minocycline compounds and methods of use thereof in urinary tract infection (UTI) treatment” (Paratek Pharmaceuticals, Inc., priority 2016, dated 2019).

Data set [1] concerns K. pneumoniae FQS. The experiment in a line: In vitro MIC, 2010 surveillance isolates. The class given is cell-based, Klebsiella pneumoniae. To be noted: N=1561.
Data set [2] has as its system human transporters and cytochrome P-450. The settings on record: cited from earlier work.
The nature of data set [3]: Phase 1 studies, safety. It is filed as in vivo, human. The method, then:
In the Phase 1 studies, 536 subjects were exposed to Compound 1 IV or oral formulations. Single IV doses up to 600 mg and single oral doses up to 600 mg have been investigated. Multiple IV doses of 100 mg once daily and 200 mg once daily for up to 14 and 7 consecutive days, respectively, have been investigated.

In data set [4] the test system is E. coli (ESBL phenotype). The experiment in a line: Broth microdilution MIC against UTI pathogens (Example 4). It is filed as cell-based. To be noted: Escherichia coli; 2,743 isolates. The method, then:
(§1) Antimicrobial activities of Compound 1 against a variety of common pathogens found in UTI were determined using a standard broth microdilution method (CLSI in Methods for Dilution Antimicrobial Susceptibility Tests for Bacteria That Grow Aerobically, Approved Standard M7-A8, Clinical and Laboratory Standards Institute, Wayne, Pa. (USA), 2011, incorporated herein by reference) with slight modifications.
(In broth dilution the organism is exposed to a series of concentrations in liquid medium.)

Data set [5] deals with E. coli (non-ESBL phenotype). The description is as above. The settings on record: Escherichia coli; 10,696 isolates. It is filed as cell-based. The method, then:
as §1

The subject of data set [6] is E. coli (Carbapenem Resistant). The data set is described as above. It is filed as cell-based. The settings on record: Escherichia coli; 25 isolates. The method, then: as §1
Data set [7] in a line: In vitro plasma protein binding (ultrafiltration), mouse plasma. To be noted: CD-1, 10-10,000 ng/mL, mean±SD, read-out: mean unbound protein fraction (fu) in plasma. It is filed as in vitro ADME, mouse (CD-1). The method, then:
(§2) For human binding studies, plasma was obtained from the blood of three healthy male volunteers. Plasma was defrosted from storage at -20° C. before use, and pools of human plasma were used for all studies. Plasma from mouse, rat, and monkey was supplied by Harlan Laboratories Ltd. (Netherlands), Milan […], Switzerland) and Centre de Primatologie ULP (France), respectively. Protein binding was measured using an ultrafiltration method. To asses the suitability of ultrafiltration, the recovery and free permeation of [^14C]-labelled Compound 1 in PBS buffer were investigated. […] Three 1 mL aliquots per concentration were introduced into […]® devices and spun for 1 min at 2000 g (filtrate ≤500 μL). Samples of the spiked solutions, the filtrate and retentate were quantified by LSC; volumes were determined by weighing. The free permeation of the test compound in PBS was evaluated as follows: Ratio=[Cuf/Cr] with Cuf being the concentration in the ultrafiltrate (ng/mL) and Cr the concentration in the retentate (ng/mL). […] Specifically, concentrations of Compound 1 was determined by an UPLC-MS/MS method. […] Standards and quality control samples were prepared on the day of analysis by adding a 20 μL aliquot of an appropriate standard or QC spiking solution in methanol. A 25 μL aliquot of the internal standard (at 200 ng/mL in methanol) was added to each well except blanks. […] Samples were processed using protein precipitation. A 0.5 mL aliquot of an acetonitrile/ethanol/acetic acid mixture (90:10:0.1, v:v:v) was added to each sample; samples were mixed using a vortex mixer for 10 minutes, and centrifuged 3800 rpm (approximately 2500×g) for 10 min at 10° C. […] The ions monitored for Compound 1 was the parent [M+H]^+ ion at m/z 557.3.0; the product ions at m/z 453.4. […] The quantification was performed using Analyst software and Watson LIMS version 7.2.0.01. Concentrations in QC and study samples were calculated from the resulting peak area ratios and interpolation from the regression equations of the respective calibration curves. The lower limit of quantitation was 5.0 ng/mL for Compound 1.

Data set [8] deals with plasma proteins. Described as above. The class given is in vitro ADME, mouse (CD-1). The settings on record: 10-10,000 ng/mL. The method, then:
as §2

In data set [9] the test system is K. pneumoniae FQR. The data set is described as follows: In vitro MIC, 2010 surveillance isolates. It is filed as cell-based, Klebsiella pneumoniae. The settings on record: N=412.
Data set [10] has as its system Citrobacter spp. The experiment in a line: In vitro MIC, 2010 surveillance isolates. The class given is cell-based. The settings on record: N=253.
Data set [11] relates to protein. The settings on record: cited from earlier work.

≈ marks a conversion by molar mass, not a printed value. Like-named read-outs stand apart in the source and are kept apart here.

`CN(C)c1cc(CNCC(C)(C)C)c(O)c2c1C[C@H]1C[C@H]3[C@H](N(C)C)C(O)=C(C(N)=O)C(=O)[C@@]3(O)C(O)=C1C2=O` [Compound 1, 9-[(2,2-dimethyl-propylamino)-methyl]-minocycline]: the “Cumulative % Inhibition at MIC” value in data set [1] (MIC 1 μg/ml) came out at 29.6%; in data set [1] (MIC 2 μg/ml), 79.3%; in data set [1] (MIC 4 μg/ml), 92.5%; in data set [1] (MIC 8 μg/ml), 95.9%; in data set [1] (MIC 16 μg/ml) it was 98.5%; in data set [1] (MIC ≤0.5 μg/ml, listed as head image P00011), 2.4%. Moreover, the “Cumulative % Inhibition at MIC” value in data set [1] (MIC ≥32 μg/ml) was 100%; in data set [9] (MIC 1 μg/ml), 15.3%; in data set [9] (MIC 2 μg/ml) it was 48.8%; in [9] (MIC 4 μg/ml) it was 72.6%; in data set [9] (MIC 8 μg/ml), 86.7%; in data set [9] (MIC 16 μg/ml), 92.7%. The “Cumulative % Inhibition at MIC” value in data set [9] (MIC ≤0.5 μg/ml, listed as head image P00012) was 1.2%; in [9] (MIC ≥32 μg/ml), 100%; in data set [10] (MIC 1 μg/ml) it was 44.7%; in data set [10] (MIC 2 μg/ml) it was 79.1%; in data set [10] (MIC 4 μg/ml), 93.3%; in data set [10] (MIC 8 μg/ml) it was 97.6%. Besides, the “Cumulative % Inhibition at MIC” value in [10] (MIC 16 μg/ml) is listed as 100%; in [10] (MIC ≤0.5 μg/ml, listed as head image P00016) it was 14.6%. The “potential for drug-drug interactions” value in data set [2] is given as “low potential for drug-drug interactions”. For the same molecule, the “discontinuations due to drug-related adverse events” value in data set [3] (all Phase 1 studies, subjects who received multiple doses) is “no discontinuations due to drug-related adverse events”. Moreover, the serious adverse events result in [3] (multiple p.o. doses of 200 mg and 300 mg once daily for up to 10 consecutive days) was “without any serious adverse events”. The results for the MIC50 in data set [4], in [5] and in data set [6] were 1 µg/mL (≈ 1.8 µM), 0.5 µg/mL (≈ 0.898 µM) and 1 µg/mL (≈ 1.8 µM), respectively. Also, the MIC90 (as a rule, the lowest concentration that inhibits either 90% of growth or 90% of the strains tested, depending on the study) in data set [4] is 4 µg/mL (≈ 7.19 µM); in data set [5], 2 µg/mL (≈ 3.59 µM); in data set [6], 4 µg/mL (≈ 7.19 µM). The free fraction (fraction unbound) (commonly the share of the substance not bound to proteins or other matrix) in [7] was found to be 0.847 ± 0.0531. Moreover, the “Mean (SD) Bound Fraction” value in data set [8] is 15.3 (5.31) %. In addition, the “mean unbound protein fraction (fu) in plasma” value in data set [8] (mean±SD) came out at 84.7±5.3%.

As to `CN(C)c1cc(NC(=O)CNC(C)(C)C)c(O)c2c1C[C@H]1C[C@H]3[C@H](N(C)C)C(O)=C(C(N)=O)C(=O)[C@@]3(O)C(O)=C1C2=O` [Tigecycline], the protein binding in [11] (0.1 μg/mL, ultracentrifugation) is 73%; in data set [11] (0.1 μg/mL, ultrafiltration), 71%; in [11] (1.0 μg/mL, ultracentrifugation), 79%; in data set [11] (1.0 μg/mL, ultrafiltration), 87%. In addition, the “protein binding, Ultracentrifugation” value is on record as 73% in [11] (Concentration 100 ng/mL) and 79% in [11] (Concentration 1,000 ng/mL). Besides, the figures for the “protein binding, Ultrafiltration” value in data set [11] (Concentration 100 ng/mL) and in data set [11] (Concentration 1,000 ng/mL) were 71% and 87%, respectively.
